In paper PMC12915296 (Journal of medicinal chemistry, 2025):
Like-named read-outs stand apart in the source and are kept apart here.

Assays:
rCB1 receptor = rCB1 receptor (Rattus norvegicus, UniProt P20272); assay: rCB1 radioligand binding assay, [3H]CP-55,940 competition; settings: for increase in binding affinity for CB1 compared to lead AMG315: ratio of Ki values
hCB2 receptor [1] = biological target: T1, hCB2 receptor (Homo sapiens, UniProt P34972); assay: hCB2 radioligand binding assay, [3H]CP-55,940 competition, HEK293 membranes; settings: for higher affinity for CB2 than the lead compound AMG315: ratio of Ki values
Adult male CD1 mice [2] = assay: Ring test for catalepsy; assay type: in vivo; settings: for immobility time in the ring test vs vehicle: i.p., mice, overall
Adult male CD1 mice [3] = assay: Measurement of rectal temperature; assay type: in vivo; settings: for body temperature vs vehicle: i.p., mice
Adult male CD1 mice [4] = assay: Tail-flick; assay type: in vivo; settings: for tail-flick latency in the tail-immersion test vs vehicle: mice, overall
Adult male CD1 mice [5] = assay: CFA-induced inflammatory pain model, mechanical paw withdrawal thresholds; assay type: in vivo; settings: AM251 5 mg/kg i.p. alone, overall
hCB1 receptor [6] = biological target: T2, hCB1 receptor (Homo sapiens, UniProt P21554); assay: cell-based; settings: for Emax: read-out: hCB1 receptor cAMP Emax, normalized to maximum CP-55,940 = 100
hCB2 receptor [7] = biological target: T1, hCB2 receptor; assay: Inhibition of forskolin-stimulated cAMP accumulation, 3xHA-hCB2-CHO cells; assay type: cell-based; settings: for Emax: read-out: hCB2 receptor cAMP Emax
hCB2 receptor [8] = biological target: T1, hCB2 receptor; assay: β-arrestin 2 recruitment assay; assay type: cell-based; settings: for Emax: read-out: hCB2 receptor β-Arrestin 2 Emax
hCB1 receptor [9] = biological target: T2, hCB1 receptor; assay: cell-based; settings: read-out: hCB1 receptor β-Arrestin 2 Emax

Sequence of rCB1 receptor (P20272 whole entry): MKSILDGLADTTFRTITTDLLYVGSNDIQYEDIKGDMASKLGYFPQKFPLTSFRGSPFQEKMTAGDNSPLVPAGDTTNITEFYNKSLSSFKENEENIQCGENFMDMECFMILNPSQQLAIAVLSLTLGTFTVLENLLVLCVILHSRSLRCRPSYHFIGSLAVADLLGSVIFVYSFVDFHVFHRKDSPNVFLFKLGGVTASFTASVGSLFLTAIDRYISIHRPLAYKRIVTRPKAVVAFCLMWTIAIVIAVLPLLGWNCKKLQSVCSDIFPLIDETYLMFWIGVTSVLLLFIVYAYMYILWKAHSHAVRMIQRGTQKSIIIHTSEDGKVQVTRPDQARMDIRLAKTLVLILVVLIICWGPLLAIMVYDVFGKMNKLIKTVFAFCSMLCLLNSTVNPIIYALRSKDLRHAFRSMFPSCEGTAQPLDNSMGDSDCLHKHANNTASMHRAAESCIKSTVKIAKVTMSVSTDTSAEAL
T2 sequence (P21554 whole entry): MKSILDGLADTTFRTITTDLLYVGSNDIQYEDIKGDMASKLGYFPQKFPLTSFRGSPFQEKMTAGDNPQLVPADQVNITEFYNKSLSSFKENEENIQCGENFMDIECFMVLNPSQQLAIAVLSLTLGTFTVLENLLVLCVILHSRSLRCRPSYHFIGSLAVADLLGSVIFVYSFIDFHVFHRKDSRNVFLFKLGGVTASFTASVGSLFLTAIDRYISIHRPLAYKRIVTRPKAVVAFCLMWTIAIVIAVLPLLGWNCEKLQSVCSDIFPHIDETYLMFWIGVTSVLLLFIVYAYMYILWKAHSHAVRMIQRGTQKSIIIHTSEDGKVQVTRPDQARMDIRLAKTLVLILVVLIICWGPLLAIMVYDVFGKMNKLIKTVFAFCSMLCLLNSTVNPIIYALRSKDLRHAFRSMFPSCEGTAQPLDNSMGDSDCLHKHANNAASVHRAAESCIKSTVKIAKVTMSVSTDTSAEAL
T1 sequence (P34972 whole entry): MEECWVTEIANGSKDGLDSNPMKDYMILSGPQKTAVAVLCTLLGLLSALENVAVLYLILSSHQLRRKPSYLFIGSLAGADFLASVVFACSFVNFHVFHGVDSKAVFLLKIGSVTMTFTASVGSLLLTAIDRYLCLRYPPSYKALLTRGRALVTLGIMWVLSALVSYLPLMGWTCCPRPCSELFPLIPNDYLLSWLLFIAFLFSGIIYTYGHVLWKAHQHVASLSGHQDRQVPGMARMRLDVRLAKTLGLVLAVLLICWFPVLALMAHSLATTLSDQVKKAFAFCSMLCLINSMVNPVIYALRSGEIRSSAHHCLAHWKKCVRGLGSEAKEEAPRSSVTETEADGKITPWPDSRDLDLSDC

SMILES: C[C@H](/C=C\C/C=C\C/C=C\CCCC(=O)N[C@H](C)CO)/C=C\CCCCCBr [Compound 15, (S,5Z,8Z,11Z,14Z)-20-Bromo-N-((R)-1-hydroxypropan-2-yl)-13-methylicosa-5,8,11,14-tetraenamide]
- Ki (rCB1 receptor): 1.1 nM
- increase in binding affinity for CB1 compared to lead AMG315 (rCB1 receptor): 2–7 fold
- Ki (hCB2 receptor [1]): 5.3 nM

SMILES: Cc1c(C(=O)NN2CCCCC2)nn(-c2ccc(Cl)cc2Cl)c1-c1ccc(I)cc1 [AM251, 1-(2,4-dichlorophenyl)-5-(4-iodophenyl)-4-methyl-N-1-piperidinyl-1H-pyrazole-3-carboxamide, reference compound]
- effect of pretreatment on AM12814-induced catalepsy in the ring test (Adult male CD1 mice [2]; AM251 5 mg/kg ip before AM12814 1 mg/kg ip): blocked
- effect of pretreatment on hypothermic effect of AM12814 (Adult male CD1 mice [3]; AM251 5 mg/kg i.p. before AM12814 1 mg/kg i.p.): abolished
- effect of pretreatment on tail-flick antinociception of AM12814 (Adult male CD1 mice [4]; AM251 5 mg/kg i.p. before AM12814 3 mg/kg i.p.): reduced the overall antinociceptive efficacy
- ipsilateral paw withdrawal thresholds, AM251-Veh vs Veh–Veh (Adult male CD1 mice [5]): modestly elevated

SMILES: CCCCC/C=C\[C@H](C)/C=C\C/C=C\C/C=C\CCCC(=O)N[C@H](C)CO [AMG315, (R)-N-(1-Methyl-2-hydroxyethyl)-13-(S)-methyl-arachidonamide, reference compound]
- Emax (hCB1 receptor [6]): 80.5%
- Emax (hCB2 receptor [7]): 18%
- Emax (hCB2 receptor [8]): 36%
- Emax (hCB1 receptor [9]): 38%

SMILES: C[C@H](/C=C\C/C=C\C/C=C\CCCC(=O)N[C@H](C)CO)/C=C\CCCCCF [Compound 21, (S,5Z,8Z,11Z,14Z)-20-Fluoro-N-((R)-1-hydroxypropan-2-yl)-13-methylicosa-5,8,11,14-tetraenamide]
- Ki (rCB1 receptor): 4.2 nM
- increase in binding affinity for CB1 compared to lead AMG315 (rCB1 receptor): 2–7 fold
- Ki (hCB2 receptor [1]): 22.2 nM

SMILES: CCCCC/C=C\C/C=C\C/C=C\C/C=C\CCCC(=O)NCCO [AEA, N-arachidonoylethanolamide, reference compound]
- Emax (hCB2 receptor [7]): 27%
- Emax (hCB2 receptor [8]): 36%

SMILES: C[C@H](/C=C\C/C=C\C/C=C\CCCC(=O)N[C@H](C)CO)/C=C\CCCCC(F)(F)F [Compound 12, (S,5Z,8Z,11Z,14Z)-20,20,20-Trifluoro-N-((R)-1-hydroxypropan-2-yl)-13-methylicosa-5,8,11,14-tetraenamide]
- efficacy for the cyclase pathway relative to β-arrestin 2 recruitment in CB1 (hCB1 receptor [6]; Emax cAMP vs Emax β-arrestin 2): 3 fold
- hCB1 receptor cAMP Emax (hCB1 receptor [6]; normalized to maximum CP-55,940 = 100): 67.5%
- Emax (hCB1 receptor [6]): 67%
- immobility time in the ring test vs vehicle (Adult male CD1 mice [2]; 0.3 mg/kg): did not differ reliably from vehicle overall
- immobility time in the ring test vs vehicle (Adult male CD1 mice [2]; 1 mg/kg): increased immobility time
- immobility time in the ring test vs vehicle (Adult male CD1 mice [2]; 3 mg/kg): increased immobility time
- EC50 (hCB2 receptor [7]): 22 nM
- Emax (hCB2 receptor [7]): 29%
- Ki (rCB1 receptor): 0.7 nM
- increase in binding affinity for CB1 compared to lead AMG315 (rCB1 receptor): 10 fold
- Ki (hCB2 receptor [1]): 3.4 nM
- higher affinity for CB2 than the lead compound AMG315 (hCB2 receptor [1]): 52–80 fold
- body temperature vs vehicle (Adult male CD1 mice [3]; 0.3 mg/kg): did not alter body temperature at any postinjection time point
- body temperature vs vehicle (Adult male CD1 mice [3]; 1 mg/kg): reducing body temperature
- body temperature vs vehicle (Adult male CD1 mice [3]; 3 mg/kg): reducing body temperature
- earliest time of reduced body temperature postinjection (Adult male CD1 mice [3]; 1 or 3 mg/kg): 10 min
- EC50 (hCB2 receptor [8]): 5.6 nM
- Emax (hCB2 receptor [8]): 28%
- tail-flick latency in the tail-immersion test vs vehicle (Adult male CD1 mice [4]; 1 mg/kg, i.p.): increased tail-flick latency
- tail-flick latency in the tail-immersion test vs vehicle (Adult male CD1 mice [4]; 3 mg/kg, i.p.): increased tail-flick latency
- tail-flick latency in the tail-immersion test vs vehicle (Adult male CD1 mice [4]; low dose, 0.1 mg/kg i.p.): increased tail-flick latency
- Emax (hCB1 receptor [9]): 22%

SMILES: C[C@H](/C=C\C/C=C\C/C=C\CCCC(=O)N[C@H](C)CO)/C=C\CCCCCO[N+](=O)[O-] [Compound 16b, (S,6Z,9Z,12Z,15Z)-20-(((R)-1-Hydroxypropan-2-yl)amino)-8-methyl-20-oxoicosa-6,9,12,15-tetraen-1-yl Nitrate]
- Ki (rCB1 receptor): 1.7 nM
- increase in binding affinity for CB1 compared to lead AMG315 (rCB1 receptor): 2–7 fold
- Ki (hCB2 receptor [1]): 10.9 nM

SMILES: C[C@H](/C=C\C/C=C\C/C=C\CCCC(=O)N[C@H](C)CO)/C=C\CCCCCO [Compound 18, (S,5Z,8Z,11Z,14Z)-20-Hydroxy-N-((R)-1-hydroxypropan-2-yl)-13-methylicosa-5,8,11,14-tetraenamide]
- Ki (rCB1 receptor; read-out: rCB1 receptor Ki, rat brain membranes, [3H]CP-55,940, (± 95% CI)): 29 nM

SMILES: C[C@H](/C=C\C/C=C\C/C=C\CCCC(=O)N[C@H](C)CO)/C=C\CCCCCC#N [Compound 16a, (S,5Z,8Z,11Z,14Z)-20-Cyano-N-((R)-1-hydroxypropan-2-yl)-13-methylicosa-5,8,11,14-tetraenamide]
- Ki (rCB1 receptor): 1.4 nM
- increase in binding affinity for CB1 compared to lead AMG315 (rCB1 receptor): 2–7 fold
- Ki (hCB2 receptor [1]): 2.2 nM
- higher affinity for CB2 than the lead compound AMG315 (hCB2 receptor [1]): 52–80 fold
